Data from EP0167935A2, “Anthracycline derivatives, a process for the production thereof, a pharmaceutical composition containing the same and their use as medicaments” (priority 1984, dated 1986).
In brackets after ≈: the same amount, converted by molar mass. Where two headings read alike, the source gives them in different places.

Experiments:
leukemic cells P 388 = assay: Inhibition of the growth of cultured leukemic cells P 388 (two-day culture); assay type: cell-based; details: Mus musculus, P388, 48 h
Text: (1) Activity of inhibiting the growth of cultures leukemic cells P 3FB8

Leukemia L 1210 = assay: Anti-tumor effect for mice bearing Leukemia L 1210 (survival); assay type: in vivo, CDF1 mice; details: injected peritoneally for 10 days; for Percent survival (%): L 1210 1 x 10^5 cells/mouse i.p., 30 days observation, saline control = 100; for Toxicity remark in the percent survival cell: CDF1 mice bearing L 1210
Protocol: (2) Anti-tumor effect for mice bearing Leukemia L 1210
A group of CDF1 mice were intraperitoneally transplanted with suspensions of leukemic cells L 1210 (1 x 10^5 cells/mouse). Immediately after the transplantation, a.25 mℓ each of the test compounds was injected peritoneally into the mice for 10 days. Observation was made for 30 days, and the percent survival for each test compound was determined, with 100 representing the number of days which the control mice group administered physiological saline survived.

[1] = concentration giving 50% inhibition of growth of a two-day culture of P 388 cells vs untreated group, read-out: IC50

## CCC1(O)CC(OC2CC(N(C)C)C(OC3CC4OC5CC(=O)C(C)OC5OC4C(C)O3)C(C)O2)c2cc3c(c(O)c2C1OC1CC(N(C)C)C(OC2CC4OC5CC(=O)C(C)OC5OC4C(C)O2)C(C)O1)C(=O)c1c(O)ccc(O)c1C3=O (centres unmarked) [Compound 1-HSR, 1-hydroxyserirubicin]
Leukemic cells P 388
  IC50: 12 ng/mL (≈ 10.2 nM)
Leukemia L 1210; Dose 0.0313 mg/kg/day
  Percent survival (%): 108%
Leukemia L 1210; Dose 0.0625 mg/kg/day
  Percent survival (%): 127%
Leukemia L 1210; Dose 0.125 mg/kg/day
  Percent survival (%): 151%
Leukemia L 1210; Dose 0.25 mg/kg/day
  Percent survival (%): 145%
Leukemia L 1210; Dose 0.5 mg/kg/day
  Percent survival (%): 139%
Leukemia L 1210; Dose 1 mg/kg/day
  Toxicity remark in the percent survival cell: Toxin
  Percent survival (%): 114%

## CCC1(O)CC(OC2CC(N(C)C)C(O)C(C)O2)c2c(O)c3c(c(O)c2C1OC1CC(N(C)C)C(OC2CC4OC5CC(=O)C(C)OC5OC4C(C)O2)C(C)O1)C(=O)c1cccc(O)c1C3=O (centres unmarked) [DTR-B/7de-dF-CB, ditrisarubicin B/7 de-dF-CB]
Leukemic cells P 388
  IC50: 21 ng/mL (≈ 22.3 nM)

## CCC1(O)CC(OC2CC(N(C)C)C(OC3CC4OC5CC(=O)C(C)OC5OC4C(C)O3)C(C)O2)c2c(O)c3c(c(O)c2C1OC1CC(N(C)C)C(O)C(C)O1)C(=O)c1cccc(O)c1C3=O (centres unmarked) [DTR-B/10de-dF-CB]
Leukemic cells P 388; [1]
  IC50: 9 ng/mL (≈ 9.56 nM)

## CCC1(O)CC(OC2CC(N(C)C)C(OC3CCC(OC4C=CC(=O)C(C)O4)C(C)O3)C(C)O2)c2c(O)c3c(c(O)c2C1OC1CC(N(C)C)C(OC2CC4OC5CC(=O)C(C)OC5OC4C(C)O2)C(C)O1)C(=O)c1cccc(O)c1C3=O (centres unmarked) [DTR-CR, ditrisarubicin CR]
Leukemic cells P 388
  IC50: 4 ng/mL (≈ 3.43 nM)

## CCC1(O)CC(OC2CC(N(C)C)C(OC3CC4OC5CC(=O)C(C)OC5OC4C(C)O3)C(C)O2)c2c(O)c3c(c(O)c2C1OC1CC(N(C)C)C(OC2CCC(OC4CCC(=O)C(C)O4)C(C)O2)C(C)O1)C(=O)c1cccc(O)c1C3=O (centres unmarked) [DTR-D, ditrisarubicin D]
Leukemic cells P 388
  IC50: 4 ng/mL (≈ 3.43 nM)
Leukemia L 1210; Dose 0.0078 mg/kg/day
  Percent survival (%): 97%
Leukemia L 1210; Dose 0.0156 mg/kg/day
  Percent survival (%): 102%
Leukemia L 1210; Dose 0.0313 mg/kg/day
  Percent survival (%): 125%
Leukemia L 1210; Dose 0.0625 mg/kg/day
  Percent survival (%): 142%
Leukemia L 1210; Dose 0.125 mg/kg/day
  Percent survival (%): 114%
Leukemia L 1210; Dose 0.25 mg/kg/day
  Percent survival (%): 131%

## CCC1(O)CC(OC2CC(N(C)C)C(OC3CC(O)C(OC4CCC(=O)C(C)O4)C(C)O3)C(C)O2)c2c(O)c3c(c(O)c2C1OC1CC(N(C)C)C(OC2CC(O)C(OC4CCC(=O)C(C)O4)C(C)O2)C(C)O1)C(=O)c1cccc(O)c1C3=O (centres unmarked) [DTR-E, ditrisarubicin E]
Leukemic cells P 388; [1]
  IC50: 7 ng/mL (≈ 5.91 nM)
Leukemia L 1210; Dose 0.0078 mg/kg/day
  Percent survival (%): 102%
Leukemia L 1210; Dose 0.0156 mg/kg/day
  Percent survival (%): 102%
Leukemia L 1210; Dose 0.0313 mg/kg/day
  Percent survival (%): 119%
Leukemia L 1210; Dose 0.0625 mg/kg/day
  Percent survival (%): 163%
Leukemia L 1210; Dose 0.125 mg/kg/day
  Percent survival (%): 156%
Leukemia L 1210; Dose 0.25 mg/kg/day
  Percent survival (%): 106%

## CCC1(O)CC(OC2CC(N(C)C)C(OC3CC4OC5CC(=O)C(C)OC5OC4C(C)O3)C(C)O2)c2c(O)c3c(c(O)c2C1OC1CC(N(C)C)C(OC2CCC(OC4CCC(O)C(C)O4)C(C)O2)C(C)O1)C(=O)c1cccc(O)c1C3=O (centres unmarked) [DTR-F, ditrisarubicin F]
Leukemic cells P 388
  IC50: 3.8 ng/mL (≈ 3.25 nM)
Leukemia L 1210; Dose 0.0078 mg/kg/day
  Percent survival (%): 101%
Leukemia L 1210; Dose 0.0156 mg/kg/day
  Percent survival (%): 120%
Leukemia L 1210; Dose 0.0313 mg/kg/day
  Percent survival (%): 127%
Leukemia L 1210; Dose 0.0625 mg/kg/day
  Percent survival (%): 133%
Leukemia L 1210; Dose 0.125 mg/kg/day
  Percent survival (%): 152%
Leukemia L 1210; Dose 0.25 mg/kg/day
  Toxicity remark in the percent survival cell: Toxin
  Percent survival (%): 133%

## CCC1(O)CC(OC2CC(N(C)C)C(OC3CC4OC5CC(=O)C(C)OC5OC4C(C)O3)C(C)O2)c2c(O)c3c(c(O)c2C1OC1CC(N(C)C)C(OC2CC(O)C(OC4CCC(O)C(C)O4)C(C)O2)C(C)O1)C(=O)c1cccc(O)c1C3=O (centres unmarked) [DTR-G, ditrisarubicin G]
Leukemic cells P 388
  IC50: 4.5 ng/mL (≈ 3.8 nM)
Leukemia L 1210; Dose 0.0078 mg/kg/day
  Percent survival (%): 109%
Leukemia L 1210; Dose 0.0156 mg/kg/day
  Percent survival (%): 111%
Leukemia L 1210; Dose 0.0313 mg/kg/day
  Percent survival (%): 117%
Leukemia L 1210; Dose 0.0625 mg/kg/day
  Percent survival (%): 163%
Leukemia L 1210; Dose 0.125 mg/kg/day
  Percent survival (%): 138%
Leukemia L 1210; Dose 0.25 mg/kg/day
  Toxicity remark in the percent survival cell: Toxin
  Percent survival (%): 125%

## CCC1(O)CC(OC2CC(N(C)C)C(OC3CC4OC5CC(=O)C(C)OC5OC4C(C)O3)C(C)O2)c2c(O)c3c(c(O)c2C1OC1CC(N(C)C)C(OC2CC(O)C(O)C(C)O2)C(C)O1)C(=O)c1cccc(O)c1C3=O (centres unmarked) [DTR-G/de-Ro]
Leukemic cells P 388
  IC50: 12 ng/mL (≈ 11.2 nM)

## CCC1(O)CC(OC2CC(N(C)C)C(OC3CC(O)C(OC4CCC(O)C(C)O4)C(C)O3)C(C)O2)c2c(O)c3c(c(O)c2C1OC1CC(N(C)C)C(OC2CC4OC5CC(=O)C(C)OC5OC4C(C)O2)C(C)O1)C(=O)c1cccc(O)c1C3=O (centres unmarked) [DTR-GR, ditrisarubicin GR]
Leukemic cells P 388
  IC50: 4.2 ng/mL (≈ 3.54 nM)

## CCC1(O)CC(OC2CC(N(C)C)C(OC3CC(O)C(O)C(C)O3)C(C)O2)c2c(O)c3c(c(O)c2C1OC1CC(N(C)C)C(OC2CC4OC5CC(=O)C(C)OC5OC4C(C)O2)C(C)O1)C(=O)c1cccc(O)c1C3=O (centres unmarked) [DTR-GR/de-Ro]
Leukemic cells P 388
  IC50: 20 ng/mL (≈ 18.7 nM)
